From patent US20250277785A1, “MICROFLUIDIC DEVICES FOR EVALUATING FIBROSIS IN MATERIAL IMPLANTATION AND CANCER” (THE UNITED STATES OF AMERICA AS REPRESENTED BY THE …, priority 2022, published 2025)

Assays:
[1] = system: primary mouse skin fibroblasts; test: Scar-in-a-jar immunostaining, collagen deposition by fibroblasts in 2D; assay type: cell-based; details: media containing L-ascorbic acid, FICOLL and TGF-β1
Procedure: (§1) Inducing collagen deposition by fibroblasts in a two-dimensional model was studied. To determine whether L929 fibroblasts would deposit collagen in response to stimuli, well plate experiments were conducted following a protocol described in Good et al., “A High Content, Phenotypic ‘Scar-In-A-Jar’ Assay for Rapid Quantification of Collagen Fibrillogenesis Using Disease-Derived Pulmonary Fibroblasts,” BMC Biomedical Engineering, 1:14, 1-10 (2019), which is incorporated by reference herein in its entirety. Immunostaining experiments were carried out on L929 cells and primary mouse skin fibroblasts exposed to media containing L-ascorbic acid, FICOLL®, and TGF-β1. […] These findings indicate the relevance of and effects of cell type and L-ascorbic acid type on in vitro extracellular matrix deposition.

L929 cells = test: as above; assay type: cell-based, mouse; details: media containing L-ascorbic acid, FICOLL and TGF-β1
Procedure: as §1

[2] = system: L929 cells and primary mouse skin fibroblasts; test: Scar-in-a-jar immunostaining, effect of L-ascorbic acid type; assay type: cell-based; details: cell type not specified for this statement
Procedure: as §1

WI-38 human lung cells = test: Picrosirius red staining of decellularized extracellular matrix; assay type: cell-based; details: Permanox plastic 4-chamber slides, 250,000 cells/chamber, with vs without L-ascorbic acid
Procedure: One method that can be used for visualization and quantification of collagen deposition in the microfluidic device is picrosirius red staining. […] Cells were grown in chambers with or without a fibronectin coating and with or without L-asorbic acid. […] In the absence of a fibronectin coating, no visible collagen deposition remained after 14-15 minutes of decellularization. […] Cells appear to deposit collagen fibers that are retained, even in the absence of a fibronectin coating, with a short decellularization time of five minutes. […]

RAW264.7 macrophages = test: Griess assay of nitrite production in media of cultured macrophages; assay type: cell-based, mouse; details: LPS stimulation of macrophages, 2D culture
Procedure: (§2) L929 mouse fibroblasts and RAW264.7 mouse macrophages were fluorescently labelled with red and green […]® (Thermo Fisher Scientific) dyes respectively. Extensive studies were conducted to optimize cell seeding density, culture times, and biomaterial implantation. Cells were co-cultured two-dimensionally or within microfluidic devices described in Example 1, after which cancer spheroids or alginate-based biomaterials were implanted within the two-dimensional cultures and within the microfluidic devices. Immunostaining, fluorescence microscopy, Griess assays, and histological analysis were used to evaluate immune cell activation and fibrosis formation in response to the spheroids and implants. Griess Assays were performed on media collected from cultured cells. […] Co-culture of RAW264.7 and L929 cells were visualized with […]® dyes. […] F-actin visualization for RAW264.7 cells treated with LPS was performed. […] Co-culture of L929 and RAW264.7 cells was performed in the microfluidic device. L929 cells were cultured in 3D within the Matrigel channel, while macrophages were introduced in 2D from an adjacent channel. After 24 hours of co-culture, the cells were primarily retained within their respective channels.

RAW264.7 cells = test: F-actin visualization of macrophage morphology; assay type: cell-based, mouse; details: increasing concentrations of LPS
Procedure: as §2

TGF-β1: transforming growth factor beta 1, stimulus for collagen deposition
Collagen I deposition in response to TGF-β1 treatment [1]: Some increases | α-SMA expression in response to TGF-β1 treatment [1]: Some increases | Collagen I deposition in response to TGF-β1 treatment (L929 cells): did not have increased Collagen I deposition | α-SMA expression (L929 cells): no α-SMA expression

O=C1O[C@H]([C@@H](O)CO)C(O)=C1O [L-ascorbic acid]
effect of the type of L-ascorbic acid on Collagen I deposition [2]: had some effects | collagen deposition (picrosirius red) (WI-38 human lung cells): increase in collagen deposition

lipopolysaccharide [LPS]
macrophage activation, as indicated by nitrite production (RAW264.7 macrophages): led to macrophage activation | morphological changes (F-actin visualization) (RAW264.7 cells): Morphological changes were observed
